According to patent EP4603105A1, “PHARMACEUTICAL COMPOSITION CONTAINING CYCLIC COMPOUND HAVING SELECTIVE KRAS INHIBITORY EFFECT AGAINST HRAS AND NRAS” (CHUGAI SEIYAKU KABUSHIKI KAISHA, priority 2022, dated 2024):
Where a SMILES comes first, the peptide text is derived from it. Bridges are numbered along the chain shown (N, C = ends). [ ]: non-standard residue; d: D form. The star is where a group is joined. hPhe(3-Cl-4-CF3) = N[C@@H](CCc1ccc(C(F)(F)F)c(Cl)c1)C(=O)O; NPrPhe(4-CF3) = CCCN[C@@H](Cc1ccc(C(F)(F)F)cc1)C(=O)O; 3Oxa8azabicyclo(3.2.1)octane = C1CC2COCC1N2*; NEtPhe(4-Me) = CCN[C@@H](Cc1ccc(C)cc1)C(=O)O; NMeAbu(4,4,4-F3) = CN[C@@H](CC(F)(F)F)C(=O)O; NMePhe(4-Me) = CN[C@@H](Cc1ccc(C)cc1)C(=O)O; NMeGly(cPent) = CN[C@H](C(=O)O)C1CCCC1; NEtLeu = CCN[C@@H](CC(C)C)C(=O)O; NMeD = CN[C@@H](CC(=O)O)C(=O)O; NMeL = CN[C@@H](CC(C)C)C(=O)O; Morpholide = C1CN(*)CCO1; NMeA = CN[C@@H](C)C(=O)O; Ac5c = NC1(C(=O)O)CCCC1; Aze = O=C(O)[C@@H]1CCN1; NEtG = CCNCC(=O)O; Sar = CNCC(=O)O

Tests used:
[1] = target: GDP-bound NRAS wild-type protein (Homo sapiens, UniProt P01111); experiment: Binding to NRAS by surface plasmon resonance (SPR), KD and KD ratio to KRAS
GDP-bound NRAS wild-type protein, sequence (P01111 whole entry): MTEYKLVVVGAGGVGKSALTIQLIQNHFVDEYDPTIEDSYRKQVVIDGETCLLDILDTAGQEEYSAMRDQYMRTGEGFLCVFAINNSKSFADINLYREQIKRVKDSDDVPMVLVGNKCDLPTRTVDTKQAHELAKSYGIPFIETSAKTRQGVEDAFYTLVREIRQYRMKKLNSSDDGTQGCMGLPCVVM
Method in brief: (§1)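 Recombinant RAS proteins bearing a biotinylated Avi tag and loaded with GDP served as the captured ligand, recaptured fresh every cycle. Binding responses were referenced to an uncoated surface and a buffer-only blank cycle. Dissociation constants were obtained by 1:1 model fitting at 30°C.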

HRAS wild-type protein = HRAS wild-type protein (Homo sapiens, UniProt P01112); experiment: Binding to HRAS by surface plasmon resonance (SPR), KD and KD ratio to KRAS
HRAS wild-type protein, sequence (P01112 whole entry): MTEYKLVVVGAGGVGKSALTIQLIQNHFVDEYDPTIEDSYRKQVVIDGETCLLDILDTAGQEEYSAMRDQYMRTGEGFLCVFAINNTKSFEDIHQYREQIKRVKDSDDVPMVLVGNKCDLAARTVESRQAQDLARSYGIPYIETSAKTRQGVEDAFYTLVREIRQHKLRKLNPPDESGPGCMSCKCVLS
Method in brief: as §1

[2] = test system: human lung cancer strain NCI-H441; format: cell-based
Method in brief: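 Signal came from […] measured per well once the reagent was added. Beforehand, cells were cultured at 37°C and 5% carbon dioxide on a compound series serially diluted in dimethyl sulfoxide.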

[3] = ratio of KD value for GDP-bound NRAS wild-type protein to KD value for KRAS (SPR)
[4] = ratio of KD value for HRAS wild-type protein to KD value for KRAS (SPR)
[5] = ratio of KD for GDP-bound NRAS wild-type protein to KD for KRAS
[6] = ratio of KD for HRAS wild-type protein to KD for KRAS
[7] = ratio of the KD value with respect to GDP-bound NRAS wild-type protein to the KD value with respect to KRAS
[8] = ratio of the KD value with respect to HRAS wild-type protein to the KD value with respect to KRAS

SMILES | NRAS /KRAS [1, 3] | HRAS /KRAS (HRAS wild-type protein; [4]) | IC50 [2] [nM] | NRAS /KRAS [1, 5] | HRAS /KRAS (HRAS wild-type protein; [6]) | NRAS /KRAS [1, 7] | HRAS /KRAS (HRAS wild-type protein; [8])
CCO[C@@H]1C[C@H]2C(=O)NC3(CCC3)C(=O)N(C)[C@@H](C3CCCC3)C(=O)N3CCC[C@@H]3CC(=O)N(C)[C@@H](CC3CC3)C(=O)N[C@@H]([C@@H](C)CC)C(=O)N(C)CC(=O)N(C)[C@H]3C/C=C\CCN(C3=O)[C@@H](Cc3ccc(C(F)(F)F)cc3)C(=O)N(C)CC(=O)N[C@@H](CCc3cc(F)c(C(F)(F)F)c(F)c3)C(=O)N2C1 [PP1613] | B (a compound having 3 or more and less than 10 is denoted as B) | B (a compound having 3 or more and less than 10 is denoted as B) | 14.7 | – | – | – | –
CC[C@H](C)[C@@H]1NC(=O)[C@H](CC(C)C)N(C)C(=O)C[C@@H](C(=O)N2CCOCC2)N(C)C(=O)[C@H](C2CCCC2)N(C)C(=O)C2(CCCC2)NC(=O)[C@@H]2CCCN2C(=O)[C@H](CCc2ccc(C(F)(F)F)c(Cl)c2)NC(=O)CN(CC)C(=O)[C@H](Cc2ccc(C)cc2)N(C)C(=O)[C@@H]2CCN2C(=O)[C@H](C)N(C)C1=O [PP0004] ([NMeL]I[NMeA][Aze][NMePhe(4-Me)][NEtG][hPhe(3-Cl-4-CF3)]P[Ac5c][NMeGly(cPent)][NMeD]-Morpholide; lactam N-11) | – | – | 52.9 | C (A compound having a KD ratio of 0.1 or more and less than 3 is denoted as C) | C (A compound having a KD ratio of 0.1 or more and less than 3 is denoted as C) | – | –
CC[C@H](C)[C@@H]1NC(=O)[C@H](CC)N(C)C(=O)C[C@@H](C(=O)N(C)C)N(CC)C(=O)[C@H](C2CCCC2)N(C)C(=O)C2(CCC2)NC(=O)[C@@H]2CCN2C(=O)[C@H](CCc2cc(F)c(C(F)(F)F)c(F)c2)NC(=O)CN(C)C(=O)[C@H](Cc2ccc(C(F)(F)F)cc2)N2CCCC[C@@H](C2=O)N(C)C(=O)CN(C)C1=O [PP0660] | – | – | 131 | – | – | B (a compound having 3 or more and less than 10 is denoted as B) | B (a compound having 3 or more and less than 10 is denoted as B)
CCC[C@H]1C(=O)N[C@@H](C2CCCC2)C(=O)N(C)CC(=O)N(C)[C@H]2C/C=C\CCN(C2=O)[C@@H](Cc2ccc(C(F)(F)F)cc2)C(=O)N(C)CC(=O)N[C@@H](CCc2ccc(C(F)(F)F)c(Cl)c2)C(=O)N2CC3(CC3)C[C@H]2C(=O)NC2(CC(C)(C)C2)C(=O)N(C)[C@@H](CC(C)(C)C)C(=O)N(C)[C@H](C(=O)N(C)C)CC(=O)N1C [PP2981] | – | – | 20.3 | AA (a compound having 20 or more is denoted as AA) | A (a compound having 10 or more and less than 20 is denoted as A) | – | –
CCCN1C(=O)CN(C)C(=O)CNC(=O)[C@H]([C@@H](C)CC)NC(=O)[C@H](CC(C)C)N(CC)C(=O)C[C@@H](C(=O)N2CCOCC2)N(C)C(=O)[C@H](C2CCCC2)N(C)C(=O)C2(CCCC2)NC(=O)[C@@H]2CCCN2C(=O)[C@H](CCc2ccc(C(F)(F)F)c(Cl)c2)NC(=O)CN(C)C(=O)[C@@H]1Cc1ccc(C(F)(F)F)cc1 [PP1967] ([NEtLeu]IG[Sar][NPrPhe(4-CF3)][Sar][hPhe(3-Cl-4-CF3)]P[Ac5c][NMeGly(cPent)][NMeD]-Morpholide; lactam N-11) | – | – | 10.9 | – | – | B (a compound having 3 or more and less than 10 is denoted as B) | B (a compound having 3 or more and less than 10 is denoted as B)
CCC[C@H]1C(=O)N[C@@H]([C@@H](C)CC)C(=O)N(C)CC(=O)N(C)[C@H]2C/C=C\CCN(C2=O)[C@@H](Cc2ccc(C)cc2)C(=O)N(C)CC(=O)N[C@@H](CCc2cc(F)c(C(F)(F)F)c(F)c2)C(=O)N2C[C@H](OCC)C[C@H]2C(=O)N(C)C2(CCC2)C(=O)N(C)[C@@H](C2CCCC2)C(=O)N(C)[C@H](C(=O)N(C)C)CC(=O)N1C [PP1793] | A (a compound having 10 or more and less than 20 is denoted as A) | B (a compound having 3 or more and less than 10 is denoted as B) | 2.4 | – | – | – | –
CCCN1C(=O)[C@@H]2CCN2C(=O)[C@H](C)N(C)C(=O)[C@H]([C@@H](C)CC)NC(=O)[C@H](CC(C)C)N(C)C(=O)C[C@@H](C(=O)N(C)C)NC(=O)[C@H](C2CCCC2)N(C)C(=O)C2(CCCC2)NC(=O)[C@@H]2CCCN2C(=O)[C@H](CCc2ccc(C(F)(F)F)c(Cl)c2)NC(=O)CN(C)C(=O)[C@@H]1Cc1ccc(C(F)(F)F)cc1 [PP0379] ([NMeL]I[NMeA][Aze][NPrPhe(4-CF3)][Sar][hPhe(3-Cl-4-CF3)]P[Ac5c][NMeGly(cPent)]D-NMe2; lactam N-11) | – | – | 4.4 | C (A compound having a KD ratio of 0.1 or more and less than 3 is denoted as C) | B (a compound having 3 or more and less than 10 is denoted as B) | – | –
CCC[C@H]1C(=O)N[C@@H]([C@@H](C)CC)C(=O)N(C2CC2)CC(=O)N(C)[C@H]2C/C=C\CCN(C2=O)[C@@H](CC2CCC(F)(F)CC2)C(=O)N(C)CC(=O)N[C@@H](CCc2ccc(C(F)(F)F)c(OC)c2)C(=O)N2C[C@H](OCC)C[C@H]2C(=O)N(C)C2(CCC2)C(=O)N(C)[C@@H](C(CC)CC)C(=O)N(C)[C@H](C(=O)N(C)C)CC(=O)N1C [PP2349] | – | – | 73.2 | – | – | A (a compound having 10 or more and less than 20 is denoted as A) | A (a compound having 10 or more and less than 20 is denoted as A)
CCO[C@@H]1C[C@H]2C(=O)NC3(CCCC3)C(=O)N(C)[C@@H](C3CCCC3)C(=O)N(C)[C@H](C(=O)N(C)C)CC(=O)N(C)[C@@H](CC(C)C)C(=O)N[C@@H]([C@@H](C)CC)C(=O)N(C)CC(=O)N(C)[C@H]3CC(C)=C(C)CN(C3=O)[C@@H](Cc3ccc(C(F)(F)F)cc3)C(=O)N(C)CC(=O)N[C@@H](CCc3cc(F)c(C(F)(F)F)c(F)c3)C(=O)N2C1 [PP1045] | – | – | 207 | C (A compound having a KD ratio of 0.1 or more and less than 3 is denoted as C) | C (A compound having a KD ratio of 0.1 or more and less than 3 is denoted as C) | – | –
CCC[C@H]1C(=O)N[C@@H]([C@@H](C)CC)C(=O)N(C2CC2)CC(=O)N(C)[C@H]2C/C=C\CCN(C2=O)[C@@H](Cc2ccc(C(F)(F)F)cc2)C(=O)N(C)CC(=O)N[C@@H](CCc2ccc(C(F)(F)F)c(OC)c2)C(=O)N2C[C@H](OCC)C[C@H]2C(=O)N(C)C2(CCC2)C(=O)N(C)[C@@H](C(CC)CC)C(=O)N(C)[C@H](C(=O)N(C)C)CC(=O)N1C [PP2313] | – | – | 7.4 | – | – | AA (a compound having 20 or more is denoted as AA) | A (a compound having 10 or more and less than 20 is denoted as A)
CC[C@H](C)[C@@H]1NC(=O)[C@H](CC(C)C)N(C)C(=O)C[C@@H](C(=O)N2C3CCC2COC3)N(C)C(=O)[C@H](C2CCCC2)N(C)C(=O)C2(CCCC2)NC(=O)[C@@H]2CCCN2C(=O)[C@H](CCc2ccc(C(F)(F)F)c(Cl)c2)NC(=O)CN(C)C(=O)[C@H](Cc2ccc(C)cc2)N(CC)C(=O)CN(C)C(=O)CN(C)C1=O [PP0051] ([NMeL]I[Sar][Sar][NEtPhe(4-Me)][Sar][hPhe(3-Cl-4-CF3)]P[Ac5c][NMeGly(cPent)][NMeD]-{3Oxa8azabicyclo(3.2.1)octane}; lactam N-11) | – | – | 22.1 | C (A compound having a KD ratio of 0.1 or more and less than 3 is denoted as C) | C (A compound having a KD ratio of 0.1 or more and less than 3 is denoted as C) | – | –
CCCN1C(=O)[C@@H]2CCN2C(=O)[C@H](C)N(C)C(=O)[C@H]([C@@H](C)CC)NC(=O)[C@H](CC(F)(F)F)N(C)C(=O)C[C@@H](C(=O)N2CCOCC2)N(C)C(=O)[C@H](C2CCCC2)N(C)C(=O)C2(CCCC2)NC(=O)[C@@H]2CCCN2C(=O)[C@H](CCc2ccc(C(F)(F)F)c(Cl)c2)NC(=O)CN(C)C(=O)[C@@H]1Cc1ccc(C(F)(F)F)cc1 [PP0191] ([NMeAbu(4,4,4-F3)]I[NMeA][Aze][NPrPhe(4-CF3)][Sar][hPhe(3-Cl-4-CF3)]P[Ac5c][NMeGly(cPent)][NMeD]-Morpholide; lactam N-11) | – | – | 3.9 | C (A compound having a KD ratio of 0.1 or more and less than 3 is denoted as C) | B (a compound having 3 or more and less than 10 is denoted as B) | – | –
CC[C@H](C)[C@@H]1NC(=O)[C@@H]2CCCCCc3ccc(cc3)C[C@@H](C(=O)N(C)CC(=O)N[C@@H](CCc3ccc(C(F)(F)F)c(OC)c3)C(=O)N3C[C@H](OC4CCC4)C[C@H]3C(=O)NC3(CC(C)(C)C3)C(=O)N(C)[C@@H](C3CCCC3)C(=O)N(C)[C@H](C(=O)N(C)C)CC(=O)N2C)N2CC/C=C\C[C@@H](C2=O)N(C)C(=O)CN(C)C1=O [PP3073] | – | – | 1.9 | A (a compound having 10 or more and less than 20 is denoted as A) | A (a compound having 10 or more and less than 20 is denoted as A) | – | –
CCO[C@@H]1C[C@H]2C(=O)NC3(CCC3)C(=O)N(C)[C@@H](C3CCCC3)C(=O)N(C)[C@H](C(=O)N(C)C)CC(=O)N(C)[C@@H](COC)C(=O)N[C@@H]([C@@H](C)CC)C(=O)N3CC[C@H]3C(=O)N(C)[C@H]3CCCCCN(C3=O)[C@@H](Cc3ccc(C(F)(F)F)cc3)C(=O)N(C)CC(=O)N[C@@H](CCc3cc(F)c(C(F)(F)F)c(F)c3)C(=O)N2C1 [PP0864] | – | – | 185 | B (a compound having 3 or more and less than 10 is denoted as B) | B (a compound having 3 or more and less than 10 is denoted as B) | – | –
